We go through 4 molecules from PMC12538274, “Paltusotine versus octreotide: different effects on radioligand uptake in neuroendocrine tumours” (Endocrine Oncology, 2025).

Like-named read-outs stand apart in the source and are kept apart here.

The conditions of series [1]: cited from earlier work.
Series [2] relates to NCI-H727 cells (human bronchopulmonary NET). The experiment in a line: Cell Titer Blue cell viability assay, NCI-H727. The following applies: 72 h, vs DMSO control. It counts as cell-based. How it is done: (§1) The BON-1 (human panNET; Prof. R Göke, University of Marburg, Germany), NCI-H727 (human bronchopulmonary NET; ATCC, USA) and QGP-1 cell lines (human panNET; JCRB Cell Bank, Japan) were cultured as previously described ([15]). Moreover, a stable hSSTR2 over-expressing BON-1 cell clone (BON-1 SSTR2) was generated as previously described ([16], [17]).
(§2) GEP-NET cell lines and primary cultures were treated for 72 h with either paltusotine or octreotide, and dimethyl sulfoxide (DMSO) was used as control. Cell Titer Blue® cell viability assay (Promega, USA) was then performed as previously described ([15], [21]). Each experiment included 3–4 samples per drug concentration and patient. Cell line experiments were performed at least three times.
Background: Resazurin is reduced to fluorescent resorufin, in cell work by metabolically active cells.

The test system of series [3] is NET patients with the carcinoid syndrome. The note with it: preliminary results, phase 2, NET patients with carcinoid syndrome; cited from earlier work. The source says:
A newly developed, orally-bioavailable non-peptide SSTR2 agonist, paltusotine, might simplify SSA therapy and is taken orally once daily ([10]). Paltusotine recently received FDA approval for acromegaly treatment based on data from two phase 3 trials ([…]-1 and […]-2/NCT05192382) ([11], [12]).

The test system of series [4] is BON-1 cells (human panNET). The series is described as follows: Cell Titer Blue cell viability assay, BON-1. It counts as cell-based. The following applies: 72 h, vs DMSO control. How it is done:
as §1, §2

The subject of another series is BON-1 SSTR2 cells. The experiment in a line: Cell Titer Blue cell viability assay, BON-1 SSTR2. It counts as cell-based, human. The following applies: 72 h, vs DMSO control.
The next series deals with pituitary tumour cells. More on the design: method as in PMID 36810324. The following applies: compared to octreotide; cited from earlier work.
Series [5] deals with QGP-1 cells (human panNET). The experiment in a line: Cell Titer Blue cell viability assay, QGP-1. The following applies: 72 h, vs DMSO control. The format is cell-based. How it is done:
as §1, §2

The conditions of series [6]: cited from earlier work. The source says:
Paltusotine is currently being investigated in a randomised phase 2 trial in NET patients with the carcinoid syndrome (NCT05361668), with promising preliminary results ([13]), and a phase 3 trial is currently being planned ([14]). […] Recently, paltusotine received FDA approval for the treatment of patients with acromegaly ([11], [12]).
This is another data set of the same source.

Series [7] concerns the target T1, hSSTR2 (stable hSSTR2 over-expressing BON-1 cells, BON-1 SSTR2) (Homo sapiens, UniProt P30874).
T1 construct: expressed in transfected cells
The series is described as follows: 18F-SiTATE uptake assay. It counts as cell-based.

The subject of series [8] is SSTR2 on the cell surface of HEK293 cells. More on the design: method as in PMID 36810324. The following applies: cited from earlier work. An excerpt: (§3) While G-protein (GP)- and arrestin (ARRB)-mediated effects are induced by full SSTR2 agonists such as octreotide ([35]), biased agonists with GP-mediated effects but diminished ARRB signalling have been reported ([35]). Arrestins play an important role in SSTR internalisation and recycling/degradation ([35]). Zhao et al. compared the molecular binding structure of octreotide and paltusotine to SSTR2 and their molecular signalling, examined β-arrestin recruitment and SSTR2 internalisation/loss of SSTR2 expression on the cell surface of HEK293 cells ([34]).

Series [9] concerns β-arrestin recruitment (SSTR2, HEK293 cells). Also noted: method as in PMID 36810324. The note with it: cited from earlier work.
Source text: as §3

Another series has as its system SSTR2. The note with it: read-out: SSTR2 binding affinity, IC50; cited from earlier work.
Series [10] deals with forskolin-stimulated cAMP accumulation. Also noted: method as in PMID 36810324. The note with it: read-out: Inhibition of forskolin-stimulated cAMP accumulation, EC50; cited from earlier work. (Cyclic AMP is a second messenger, typically raised through Gs and lowered through Gi signalling.)
Series [11] concerns patient-derived GEP-NET primary cultures. The series is described as follows: Cell Titer Blue cell viability assay, patient-derived GEP-NET primary cultures. It counts as cell-based, human. The note with it: 72 h, n = 5. An excerpt:
Fresh patient-derived GEP-NET primary cultures were established from surgically-derived patient tumours as previously described ([18]). […] Eleven of these were metastatic GEP-NETs, including six […] = 2 with the carcinoid syndrome) and eight […]. The use of primary tumour tissue as part of NeoExNET was approved by the Ethics Committee of LMU Munich (project number 152-10) and by the Cantonal Ethics Committee Zurich (reference number BASEC 2017-00950). […] GEP-NET cell lines and primary cultures were treated for 72 h with either paltusotine or octreotide, and dimethyl sulfoxide (DMSO) was used as control. Cell Titer Blue® cell viability assay (Promega, USA) was then performed as previously described ([15], [21]). […] Cell line experiments were performed at least three times.

Another series relates to SSTR1/3/4/5. Also noted: method as in PMID 11980628. The following applies: cited from earlier work. An excerpt:
However, according to current guidelines as well as the FDA/EMA labelling instructions regarding Lutathera®, SSA therapy needs to be discontinued before PRRT ([7], [8], [9]). These recommendations stem from the fact that both SSAs and PRRT target the SSTR2. […] Moreover, long-acting octreotide and prolonged-release lanreotide maintain platea ...

T1 sequence (P30874 whole entry): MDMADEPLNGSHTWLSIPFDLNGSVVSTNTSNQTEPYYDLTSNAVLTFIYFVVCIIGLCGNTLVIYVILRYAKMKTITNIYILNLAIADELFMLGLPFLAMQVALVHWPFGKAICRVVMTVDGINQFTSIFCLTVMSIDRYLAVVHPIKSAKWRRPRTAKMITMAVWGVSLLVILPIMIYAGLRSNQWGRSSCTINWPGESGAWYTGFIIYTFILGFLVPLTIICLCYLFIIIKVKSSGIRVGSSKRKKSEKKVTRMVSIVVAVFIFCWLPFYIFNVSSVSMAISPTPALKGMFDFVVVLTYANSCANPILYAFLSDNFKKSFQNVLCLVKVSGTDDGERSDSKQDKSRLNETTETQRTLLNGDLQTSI

`C[C@@H](O)[C@@H]1NC(=O)[C@H](CCCCN)NC(=O)[C@@H](Cc2c[nH]c3ccccc23)NC(=O)[C@H](Cc2ccccc2)NC(=O)[C@@H](NC(=O)[C@H](N)Cc2ccccc2)CSSC[C@@H](C(=O)N[C@H](CO)[C@@H](C)O)NC1=O` [octreotide]: in [1] (subcutaneous injections, humans), the Plasma concentrations result is given as “up to 4 nM”.
For `N#Cc1cccc(-c2ccc3ncc(-c4cc(F)cc(F)c4)c(N4CCC(N)CC4)c3c2)c1O` [paltusotine], the “Effect on cell viability” value was “overall no anti-tumour effects” in series [2] (NCI-H727, 4 nM); “not found” in series [2] (NCI-H727, 400 nM); “overall no anti-tumour effects” in series [4] (BON-1, 4 nM); “slight, significant increase in viability” in series [4] (BON-1, 400 nM); “overall no anti-tumour effects” in the series with BON-1 SSTR2 cells (BON-1 SSTR2, 4 nM); “not found” in the series with BON-1 SSTR2 cells (BON-1 SSTR2, 400 nM). The “Effect on cell viability” value in series [5] (QGP-1, 4 nM) is given as “overall no anti-tumour effects”; in series [5] (QGP-1, 400 nM), “slight, significant decrease in cell viability”. The Symptom control entry in series [3] is reported as “improved symptom control”. Besides, the Tolerability entry in [3] is given as “good tolerability”. Further, in series [1] (in vivo), the Plasma concentrations was 22 to 406 nM. Also, the Apoptotic rate result in the series with pituitary tumour cells is on record as “increased apoptotic rate compared to octreotide”. In addition, in series [6], the Oral bioavailability entry is on record as “good oral bioavailability”. Besides, the “Effect on 18F-SiTATE radioligand uptake compared to the unblocked control” value in series [7] (73–254 nM (1,000×) and 146–508 nM (2,000×)) is “no significant effects on cellular uptake”; in series [7] (low, clinically-relevant concentrations 7.3–25.4 nM (100×)), “no influence on radioligand binding compared to the unblocked control”. Moreover, the SSTR2 internalisation/desensitisation result in series [8] was “less SSTR2 internalisation/desensitisation”. In series [9], the β-arrestin recruitment result is “much lower β-arrestin recruitment”. Besides, the half-inhibitory concentration (IC50) in the series on SSTR2 is 0.25 nM. In addition, the EC50 in series [10] was 2.08 ± 1.39 nM. Also, the “Overall effect on cell viability” value in [11] (100 nM) and in series [11] (500 nM) was “overall slight anti-tumour effects” in each case.
For the molecule lanreotide, the “Binding affinity to SSTR1/3/4/5” value in the series with SSTR1/3/4/5 is recorded as “reduced or no binding affinity”. Moreover, in the series with SSTR2, the IC50 is 0.54 nM.
On to somatostatin, for which the IC50 with SSTR2 was 0.15 nM.

A word on the IC50: it is the concentration at which inhibition is half-maximal. As usually defined, the EC50 is the concentration giving half of the maximal effect.
